# Data reported in US12123051B2, “Nucleic acid ratio determination” (priority 2017, dated 2024).
# Where two headings read alike, the source gives them in different places.
# Assays:
# Assay type in all cases: cell-based
# [1] = tested on: Chlamydia trachomatis strains 1-5; test: Minimum inhibitory concentration (MIC) of antibiotics, predetermined by standard procedures
# Experimental: After infection, there was no change of media at the 4 h time point. Once in an exponential growth phase, 20 hours PI, cells were treated with a single dose of different antibiotics. […] Strains used for this treatment protocol were Strain 1) serovar D lab strain (UW-3/Cx), Strain 2) serovar L2 wild type lab strain (434/Bu), Strain 3) serovar L2 lab created mutant strain, resistant to trimethoprim, Strain 4) serovar L2 lab created mutant strain, resistant to Spectinomycin and Strain 5) serovar L2 lab created mutant strain, resistant to Rifampicin. MIC for all serovars and each antibiotic was predetermined, using standard procedures documented in literature, and listed in the table below. […] Strains 1, 2, 3 and 4 are also susceptible to rifampicin, whilst strain 5 is resistant to that same antibiotic. Samples were then incubated at 37° C. with 5% CO2 and harvested at 1 hour PT, using SPG buffer and extracted immediately. Two biological replicates were obtained for each condition.
# [2] = tested on: Chlamydia trachomatis (serovar D) in HEp-2 cells; test: Antibiotic susceptibility testing by VITA PCR, azithromycin, Treatment Protocol B; conditions: Example 7: 0.128 μg/mL at 24 h PI
# Experimental: The levels of GAT and NED were estimated and used to calculate VITA Index.
# (§1) The ΔCt was calculated as the differences between the Ct values of the NED and GAT1/2 signals.
# To measure NED, another region of Chlamydia DNA was co-amplified in the same RT-PCR using primers targeting a region of genomic DNA which is not transcribed. The levels of GAT and NED were estimated and used to calculate VITA Index.
# as §1
# [3] = tested on: Chlamydia trachomatis strains 1-5 in HEp-2 cells; conditions: 1 hour PT
# Experimental: After infection, there was no change of media at the 4 h time point. Once in an exponential growth phase, 20 hours PI, cells were treated with a single dose of different antibiotics. […] Strains used for this treatment protocol were Strain 1) serovar D lab strain (UW-3/Cx), Strain 2) serovar L2 wild type lab strain (434/Bu), Strain 3) serovar L2 lab created mutant strain, resistant to trimethoprim, Strain 4) serovar L2 lab created mutant strain, resistant to Spectinomycin and Strain 5) serovar L2 lab created mutant strain, resistant to Rifampicin. […] Samples were then incubated at 37° C. with 5% CO2 and harvested at 1 hour PT, using SPG buffer and extracted immediately. Two biological replicates were obtained for each condition.
# The following example analyses the susceptibility of bacteria to a given drug, by estimation of the change of GAT levels relative to NED in TNA samples. These were then compared between samples treated with antibiotic and not treated (control). […] Treatment was as described in example 1, Treatment E (1.1.5). To obtain a measure GAT, Chlamydia DNA and RNA was amplified by RT-PCR using primers targeting two different locations of the omp1 gene and its transcripts. To measure NED, another region of Chlamydia DNA was co-amplified in the same RT-PCR using primers targeting a region of genomic DNA which is not transcribed. The levels of GAT and NED were estimated and used to calculate VITA Index. Further to this the VITA Indices of treated and untreated samples were used to calculate the ΔVITA Ratio.
# Partzyme oligonucleotides, Reporter substrates and PCR primers used for amplification and detection of GAT1, GAT2 and NED were as per example 9 (9.1, 9.2 and 9.3 respectively). The RT-PCR conditions used were as described in Example 9 (9.5) and reactions contained either 5 μL of TNA template (1/1000 dilution) or no target (dH2O).
# Chlamydia DNA and RNA from 2 GAT regions and one NED region, were co-amplified and detected in single RT-PCR from TNA extracted from chlamydia cultures. These cultures were treated with antibiotic or left untreated (control) at an exponential growth phase and harvested at 1 hour post treatment. […] The ΔCt was calculated as the differences between the Ct values of the NED and GAT1/2 signals.
# The following example analyses the susceptibility of bacteria to a given drug, by estimation of the change of GAT levels relative to NED in TNA samples. These were then compared between samples treated with antibiotic and not treated (control). […] To obtain a measure GAT, Chlamydia DNA and RNA was amplified by RT-PCR using primers targeting two different locations of the omp1 gene and its transcripts. To measure NED, another region of Chlamydia DNA was co-amplified in the same RT-PCR using primers targeting a region of genomic DNA which is not transcribed. The levels of GAT and NED were estimated and used to calculate VITA Index. Further to this the VITA Indices of treated and untreated samples were used to calculate the ΔVITA.
# Chlamydia DNA and RNA from 2 GAT regions and one NED region, were co-amplified and detected in single RT-PCR from TNA extracted from chlamydia cultures. These cultures were treated with antibiotic (Rifampicin) or left untreated (control) during the exponential growth phase and harvested at one hour post treatment. […] The ΔCt was calculated as the differences between the Ct values of the NED and GAT1/2 signals.
# [4] = tested on: Chlamydia trachomatis strain 1 and strain 5 in HEp-2 cells; test: Antibiotic susceptibility testing by VITA PCR, rifampicin, short incubation, Treatment Protocol C; conditions: for ΔVITA Ratio A/B: 0.256 μg/mL; for VITA Index: plus antibiotic 0.256 μg/mL
# Experimental: After infection, there was no change of media at the 4 hour time point, essentially creating an unsynchronised population, which would be more similar to in vivo conditions. Once at an exponential growth phase, 20 hours PI, treatment was applied. This was achieved by replacing the DMEM for each well, with addition of either i) no antibiotic, or ii) antibiotic (0.256 μg/mL of Rifampicin). Samples were then either incubated at 37° C. with 5% CO2, and harvested after 5 minutes PT; or incubated at room temperature and harvested after 15 minutes PT. SPG buffer was used for harvest and TNA was extracted immediately after. Strains used for this treatment protocol were Strain 1) serovar D lab strain (UW-3/Cx), susceptible to rifampicin, and Strain 5) serovar L2 lab created mutant strain, resistant to Rifampicin.
# The following example estimates the change of GAT levels relative to NED in TNA samples extracted from HEp-2 cells which had been infected with Chlamydia trachomatis strain 1 and strain 5 (serovar D lab strain and serovar L2 strain resistant to rifampicin respectively). TNA was extracted from cells, which had been either treated with the antibiotic Rifampicin at a concentration of 0.256 μg/mL, or not treated (control), at 20 hours post infection whilst in an exponential growth phase. Treatment was as described in example 1, Treatment C (1.1.3). To obtain a measure GAT, Chlamydia DNA and RNA was amplified by RT-PCR using primers targeting two different locations of the omp1 gene and its transcripts. To measure NED, another region of Chlamydia DNA was co-amplified in the same RT-PCR using primers targeting a region of genomic DNA which is not transcribed. The levels of GAT and NED were estimated and used to calculate VITA Index. Further to this the VITA Indices of treated and untreated samples were used to calculate the ΔVITA Ratio.
# The reactions contained either 5 μL of TNA template (1/1000 dilution) or no target (dH2O).
# Chlamydia DNA and RNA from 2 regions within the omp1 gene and transcripts (GAT1 and GAT2), and one NED region, were co-amplified and detected in single RT-PCR from TNA extracted from chlamydia cultures. These cultures were treated with antibiotic or left untreated (control) at an exponential growth phase. They were incubated for either 5 minutes at 37° C. (FIG. 7D) or 15 minutes at room temperature (FIG. 7E). […] The results were then compared between no treatment reactions (control) and those treated with antibiotic at each time point (FIGS. 7D-E).
# [5] = Strain 1, serovar D lab strain (UW-3/Cx)
# [6] = Strain 2, serovar L2 wild type lab strain (434/Bu)
# [7] = Strain 3, serovar L2 mutant resistant to trimethoprim
# [8] = Strain 4, serovar L2 mutant resistant to Spectinomycin
# [9] = Strain 5, serovar L2 mutant resistant to Rifampicin
# [10] = Resistant strain (strain 5), 5 min incubation PT at 37° C. with 5% CO2
# [11] = Resistant strain (strain 5), 15 min incubation PT at room temperature
# [12] = Susceptible strain (strain 1), 5 min incubation PT at 37° C. with 5% CO2
# [13] = Susceptible strain (strain 1), 15 min incubation PT at room temperature
smiles,measurement,setting,value
CC[C@H]1OC(=O)[C@H](C)[C@@H](O[C@H]2C[C@@](C)(OC)[C@@H](O)[C@H](C)O2)[C@H](C)[C@@H](O[C@@H]2O[C@H](C)C[C@H](N(C)C)[C@H]2O)[C@](C)(O)C[C@@H](C)CN(C)[C@H](C)[C@@H](O)[C@]1(C)O [Azithromycin],"Minimum inhibitory concentration (MIC), antibiotic dose",[1]; [5],0.032 mg/L
same,"Minimum inhibitory concentration (MIC), antibiotic dose",[1]; [6],0.032 mg/L
same,"Minimum inhibitory concentration (MIC), antibiotic dose",[1]; [7],0.016 mg/L
same,"Minimum inhibitory concentration (MIC), antibiotic dose",[1]; [8],0.016 mg/L
same,"Minimum inhibitory concentration (MIC), antibiotic dose",[1]; [9],0.032 mg/L
same,Susceptibility according to the MIC analysis,[1]; all strains used,susceptible
same,ΔVITA A/B (no antibiotic / plus antibiotic),[2]; 1 h PT,3.77
same,ΔVITA A/B (no antibiotic / plus antibiotic),[2]; 6 h PT,2.12
C[C@H]1c2cccc(O)c2C(=O)C2=C(O)[C@]3(O)C(=O)C(C(N)=O)=C(O)[C@@H](N(C)C)[C@@H]3[C@@H](O)[C@@H]21 [Doxycycline],"Minimum inhibitory concentration (MIC), antibiotic dose",[1]; [5],0.128 mg/L
same,"Minimum inhibitory concentration (MIC), antibiotic dose",[1]; [6],0.064 mg/L
same,"Minimum inhibitory concentration (MIC), antibiotic dose",[1]; [7],0.032 mg/L
same,"Minimum inhibitory concentration (MIC), antibiotic dose",[1]; [8],0.064 mg/L
same,"Minimum inhibitory concentration (MIC), antibiotic dose",[1]; [9],0.064 mg/L
same,ΔVITA Ratio A/B,"[3]; Table 12b: Strain 1, 0.256 μg/mL",1.48
same,VITA Index,"[3]; Table 12b: Strain 1, plus antibiotic 0.256 μg/mL",2.80
same,ΔVITA Ratio A/B,"[3]; Table 12b: Strain 2, 0.256 μg/mL",1.24
same,VITA Index,"[3]; Table 12b: Strain 2, plus antibiotic 0.256 μg/mL",3.92
same,ΔVITA Ratio A/B,"[3]; Table 12b: Strain 3, 0.256 μg/mL",1.32
same,VITA Index,"[3]; Table 12b: Strain 3, plus antibiotic 0.256 μg/mL",5.64
same,ΔVITA Ratio A/B,"[3]; Table 12b: Strain 5, 0.256 μg/mL",1.43
same,VITA Index,"[3]; Table 12b: Strain 5, plus antibiotic 0.256 μg/mL",5.01
CO[C@H]1/C=C/O[C@@]2(C)Oc3c(C)c(O)c4c(O)c(c(/C=N/N5CCN(C)CC5)c(O)c4c3C2=O)NC(=O)/C(C)=C\C=C\[C@H](C)[C@H](O)[C@@H](C)[C@@H](O)[C@@H](C)[C@H](OC(C)=O)[C@@H]1C [Rifampicin],ΔVITA Ratio A/B,[4]; [10],1.07
same,ΔVITA Ratio A/B,[4]; [11],0.91
same,VITA Index,[4]; [10],11.18
same,VITA Index,[4]; [11],11.41
same,ΔVITA Ratio A/B,[4]; [12],1.90
same,ΔVITA Ratio A/B,[4]; [13],1.80
same,VITA Index,[4]; [12],4.69
same,VITA Index,[4]; [13],4.41
same,"Minimum inhibitory concentration (MIC), antibiotic dose",[1]; [5],0.008 mg/L
same,"Minimum inhibitory concentration (MIC), antibiotic dose",[1]; [6],0.004 mg/L
same,"Minimum inhibitory concentration (MIC), antibiotic dose",[1]; [7],0.004 mg/L
same,"Minimum inhibitory concentration (MIC), antibiotic dose",[1]; [8],0.004 mg/L
same,"Minimum inhibitory concentration (MIC), antibiotic dose",[1]; [9],8.192 mg/L
same,ΔVITA Ratio A/B,"[3]; Table 13: Strain 1, 0.256 μg/mL",3.54
same,VITA Index,"[3]; Table 13: Strain 1, plus antibiotic 0.256 μg/mL",1.17
same,ΔVITA Ratio A/B,"[3]; Table 13: Strain 2, 0.256 μg/mL",2.93
same,VITA Index,"[3]; Table 13: Strain 2, plus antibiotic 0.256 μg/mL",1.66
same,ΔVITA Ratio A/B,"[3]; Table 13: Strain 3, 0.256 μg/mL",4.70
same,VITA Index,"[3]; Table 13: Strain 3, plus antibiotic 0.256 μg/mL",1.58
same,ΔVITA Ratio A/B,"[3]; Table 13: Strain 4, 0.256 μg/mL",5.86
same,VITA Index,"[3]; Table 13: Strain 4, plus antibiotic 0.256 μg/mL",1.68
same,ΔVITA Ratio A/B,"[3]; Table 13: Strain 5 (Rifampicin resistant), 0.256 μg/mL",1.06
same,VITA Index,"[3]; Table 13: Strain 5 (Rifampicin resistant), plus antibiotic 0.256 μg/mL",6.71
